From patent US20200095236A1, “ANTIBACTERIAL COMPOUNDS” (FORGE THERAPEUTICS, INC., priority 2017, published 2020) come the findings set out here.

In assay [1] the test system is TLR-4 activity of A. baumannii culture supernatants. Description: TLR4 assay: TLR4 activity of A. baumannii culture supernatants in HEK-Blue-hTLR4 cells. It counts as cell-based. The following applies: Acinetobacter baumannii, HEK-Blue hTLR4, read-out: % TLR-4 activity. The protocol:
The TLR4 assay measures activity of diluted filter-sterilized A. baumannii culture supernatants. The assay was performed as described in Lin et al, Mbio, 2012. Briefly, A. baumannii was passaged to mid log-phase in the presence of Forge LpxC inhibitors. Culture supernatants were harvested, filter-sterilized and diluted 1:1000. TLR4 activity of the supernatants was tested using HEK-Blue-hTLR4 cells (Invivogen) that carry NF-kB and AP-1 driven SEAP (secreted embryonic alkaline phosphatase) reporter gene.
Exemplary TLR4 assay data (% TLR-4 activity) for compounds in embodiments of the disclosure.

Another assay relates to S. aureus. Description: Bacterial susceptibility testing, MIC by broth microdilution (CLSI). The following applies: Staphylococcus aureus, read-out: S. aureus MIC. In kind it is cell-based. The protocol: (§1) Minimal inhibitory concentrations (MIC) were determined by the broth microdilution method in accordance with the Clinical and Laboratory Standards Institute (CLSI) guidelines. In brief, organism suspensions were adjusted to a 0.5 McFarland standard to yield a final inoculum between 3×10^5 and 7×10^5 colony-forming units (CFU)/mL. Drug dilutions and inocula were made in sterile, cation adjusted Mueller-Hinton Broth (Beckton Dickinson). An inoculum volume of 100 μL was added to wells containing 100 μL of broth with 2-fold serial dilutions of drug. All inoculated microdilution trays were incubated in ambient air at 35° C. for 18-24 h. Following incubation, the lowest concentration of the drug that prevented visible growth (OD600 nm<0.05) was recorded as the MIC. Performance of the assay was monitored by the use of laboratory quality-control strains and levofloxacin, a compound with a defined MIC spectrum, in accordance with CLSI guidelines.

For the next assay, the system named is K. pneumoniae. The description is as above. In kind it is cell-based. The note with it: Klebsiella pneumoniae, read-out: K. pneumoniae MIC. The protocol: as §1
Another assay relates to E. coli. The assay is described as above. The following applies: Escherichia coli, read-out: E. coli MIC. It counts as cell-based. The protocol: as §1
The target of another assay is E. coli LpxC (Escherichia coli, UniProt P0A725). Description: LpxC Binding Assay (Rapid Fire MS assay). In kind it is biochemical.
Setting [2] is: broth microdilution, 35° C., 18-24 h.

For orientation: MIC means the lowest concentration found to suppress growth. A word on the IC50: it is the concentration that inhibits the measured activity by half. The low end stands for inhibition by little substance, the high end for a need for much substance.

Values after ≈ are worked out from the molar mass of the structure shown. Where two headings read alike, the source gives them in different places.

E. coli LpxC, sequence (P0A725 whole entry): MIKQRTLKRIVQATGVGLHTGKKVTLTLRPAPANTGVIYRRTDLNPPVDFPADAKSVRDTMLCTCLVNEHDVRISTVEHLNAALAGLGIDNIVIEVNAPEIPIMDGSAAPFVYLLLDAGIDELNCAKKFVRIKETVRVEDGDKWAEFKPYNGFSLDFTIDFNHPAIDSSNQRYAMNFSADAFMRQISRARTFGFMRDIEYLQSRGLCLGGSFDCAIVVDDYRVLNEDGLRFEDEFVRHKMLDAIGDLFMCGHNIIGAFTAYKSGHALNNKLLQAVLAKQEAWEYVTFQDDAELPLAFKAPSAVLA

For `CC(=O)NC[C@@H](Cc1ccc(C#Cc2ccc(CN3CCOCC3)cc2)cc1)c1nc[nH]c(=O)c1O` [Compound 14, (R)-N-(2-(5-hydroxy-6-oxo-1,6-dihydropyrimidin-4-yl)-3-(4-((4-(morpholinomethyl)phenyl)ethynyl)phenyl)propyl)acetamide], in assay [1], the activity at 4 µg/mL is > 80%, the activity at 8 µg/mL was > 80% and the activity at 16 µg/mL is > 80%. Further, in the assay on S. aureus (setting [2]), the MIC was > 32 µg/mL. Also, the minimum inhibitory concentration (MIC) with K. pneumoniae (setting [2]) is 8 to 32 µg/mL (≈ 16.4 to 65.8 µM). Besides, the MIC in the assay on E. coli (setting [2]) lay within 1 to 8 µg/mL (≈ 2.06 to 16.4 µM).
As to `COC(=O)NCC(Cc1ccc(C#Cc2ccc(CN3CC4CCC(C3)O4)cc2)cc1)c1nc[nH]c(=O)c1O` (stereo not shown) [Compound 21, methyl (3-(4-((4-((8-oxa-3-azabicyclo[3.2.1]octan-3-yl)methyl)phenyl)ethynyl)phenyl)-2-(5-hydroxy-6-oxo-1,6-dihydropyrimidin-4-yl)propyl)carbamate], the minimum inhibitory concentration (MIC) in the assay with S. aureus (setting [2]) is > 32 µg/mL; in the assay on K. pneumoniae (setting [2]), 8 to 32 µg/mL (≈ 15.1 to 60.5 µM); with E. coli (setting [2]), 1 to 8 µg/mL (≈ 1.89 to 15.1 µM).
Turning to `CC(NC(=O)CF)C(Cc1ccc(C#Cc2ccc(CN3CCOCC3)cc2)cc1)c1nc[nH]c(=O)c1O` (stereo not shown) [Compound 42, 2-fluoro-N-(3-(5-hydroxy-6-oxo-1,6-dihydropyrimidin-4-yl)-4-(4-((4-(morpholinomethyl)phenyl)ethynyl)phenyl)butan-2-yl)acetamide], the MIC in the assay with S. aureus, in the assay on K. pneumoniae and in the assay on E. coli was > 32 µg/mL in each case.
For the molecule `O=C(CF)NCC(Cc1ccc(C#Cc2ccc(CN3CCCC3)cc2)cc1)c1nc[nH]c(=O)c1O` (stereo not shown) [Compound 44, 2-fluoro-N-(2-(5-hydroxy-6-oxo-1,6-dihydropyrimidin-4-yl)-3-(4-((4-(pyrrolidin-1-ylmethyl)phenyl)ethynyl)phenyl)propyl)acetamide], the MIC with S. aureus, in the assay with K. pneumoniae and with E. coli was > 32 µg/mL in each case.
Consider `N[C@@H]1CCN(Cc2ccc(C#Cc3ccc(CC(CNC(=O)CF)c4nc[nH]c(=O)c4O)cc3)cc2)C1` (stereo partly drawn) [Compound 45, N-(3-(4-((4-(((R)-3-aminopyrrolidin-1-yl)methyl)phenyl)ethynyl)phenyl)-2-(5-hydroxy-6-oxo-1,6-dihydropyrimidin-4-yl)propyl)-2-fluoroacetamide], for which the MIC in the assay with S. aureus, in the assay with K. pneumoniae and with E. coli was > 32 µg/mL each time.
Regarding `O=C(CN1CCC1)NCC(Cc1ccc(C#Cc2ccc(CN3CCOCC3)cc2)cc1)c1nc[nH]c(=O)c1O` (stereo not shown) [Compound 46, 2-(azetidin-1-yl)-N-(2-(5-hydroxy-6-oxo-1,6-dihydropyrimidin-4-yl)-3-(4-((4-(morpholinomethyl)phenyl)ethynyl)phenyl)propyl)acetamide], the MIC with S. aureus (setting [2]), in the assay with K. pneumoniae (setting [2]) and with E. coli (setting [2]) was > 32 µg/mL each time.
On to `C=CCNCC(Cc1ccc(C#Cc2ccc(CN3CCOCC3)cc2)cc1)c1nc[nH]c(=O)c1O` (stereo not shown) [Compound 56, 6-(1-(allylamino)-3-(4-((4-(morpholinomethyl)phenyl)ethynyl)phenyl)propan-2-yl)-5-hydroxypyrimidin-4(3H)-one], for which the half-inhibitory concentration (IC50) at E. coli LpxC is 0.01 to 0.05 µM.
The same measure, in the same setting: next, `C[C@H]1CN(Cc2ccc(C#Cc3ccc(CC(CNCCF)c4nc[nH]c(=O)c4O)cc3)cc2)C[C@H](C)O1` (stereo partly drawn) [Compound 79, 6-(1-(4-((4-(((2S,6S)-2,6-dimethylmorpholino)methyl)phenyl)ethynyl)phenyl)-3-((2-fluoroethyl)amino)propan-2-yl)-5-hydroxypyrimidin-4(3H)-one]: 0.1 to 1 µM; `CS(=O)(=O)NCC(Cc1ccc(C#Cc2ccc(CN3CCOCC3)cc2)cc1)c1nc[nH]c(=O)c1O` (stereo not shown) [Compound 80, N-(2-(5-hydroxy-6-oxo-1,6-dihydropyrimidin-4-yl)-3-(4-((4-(morpholinomethyl)phenyl)ethynyl)phenyl)propyl) methanesulfonamide]: 0.1 to 1 µM; `Cc1nnc(NCC(Cc2ccc(C#Cc3ccc(CN4CCOCC4)cc3)cc2)c2nc[nH]c(=O)c2O)o1` (stereo not shown) [Compound 87, 5-hydroxy-6-(1-((5-methyl-1,3,4-oxadiazol-2-yl)amino)-3-(4-((4-(morpholinomethyl)phenyl)ethynyl)phenyl)propan-2-yl)pyrimidin-4(3H)-one]: 0.05 to 0.1 µM.
Take `O=c1[nH]cnc(CCc2ccc(C#Cc3ccc(CN4CCOCC4)cc3)c(F)c2)c1O` [Compound 98, 6-(3-fluoro-4-((4-(morpholinomethyl)phenyl)ethynyl)phenethyl)-5-hydroxypyrimidin-4(3H)-one]: the IC50 on E. coli LpxC was < 0.01 µM.
`CO[C@H]1CCN(Cc2ccc(C#Cc3ccc(CC(C(=O)NCC(F)F)c4nc[nH]c(=O)c4O)cc3)cc2)C1` (stereo partly drawn) [Compound 105, N-(2,2-difluoroethyl)-2-(5-hydroxy-6-oxo-1,6-dihydropyrimidin-4-yl)-3-(4-((4-(((S)-3-methoxypyrrolidin-1-yl)methyl)phenyl)ethynyl)phenyl) propanamide]: the IC50 at E. coli LpxC lay within 0.05 to 0.1 µM.
On E. coli LpxC, `COC1CN(Cc2ccc(C#Cc3ccc(CC(C(=O)NCC(F)F)c4nc[nH]c(=O)c4O)cc3)cc2)C1` (stereo not shown) [Compound 109, N-(2,2-difluoroethyl)-2-(5-hydroxy-6-oxo-1,6-dihydropyrimidin-4-yl)-3-(4-((4-((3-methoxyazetidin-1-yl)methyl)phenyl)ethynyl)phenyl) propanamide] came in with a concentration for half-maximal inhibition (IC50) of 0.01 to 0.05 µM.
The molecule `COCCc1ccc(C#Cc2ccc(CC(C(=O)NCC(F)F)c3nc[nH]c(=O)c3O)cc2)cc1` (stereo not shown) [Compound 114, N-(2,2-difluoroethyl)-2-(5-hydroxy-6-oxo-1,6-dihydropyrimidin-4-yl)-3-(4-((4-(2-methoxyethyl)phenyl)ethynyl)phenyl) propanamide] displayed an IC50 on E. coli LpxC of 0.05 to 0.1 µM.
Take `N#CC1CN(Cc2ccc(C#Cc3ccc(CC(C(=O)NCC(F)F)c4nc[nH]c(=O)c4O)cc3)cc2)C1` (stereo not shown) [Compound 149, 3-(4-((4-((3-cyanoazetidin-1-yl)methyl)phenyl)ethynyl)phenyl)-N-(2,2-difluoroethyl)-2-(5-hydroxy-6-oxo-1,6-dihydropyrimidin-4-yl)propanamide]: at E. coli LpxC, the IC50 was < 0.01 µM.
The same measure, in the same setting: to `N#CCC1CCN(Cc2ccc(C#Cc3ccc(CC(C(=O)NCC(F)F)c4nc[nH]c(=O)c4O)cc3)cc2)CC1` (stereo not shown) [Compound 152, 3-(4-((4-((4-(cyanomethyl)piperidin-1-yl)methyl)phenyl)ethynyl)phenyl)-N-(2,2-difluoroethyl)-2-(5-hydroxy-6-oxo-1,6-dihydropyrimidin-4-yl)propanamide] belongs 0.1 to 1 µM.
Take `O=c1[nH]cnc(CCc2ccc(C#Cc3ccc(CN4CCOCC4)cc3F)cc2)c1O` [Compound 185, 6-(4-((2-fluoro-4-(morpholinomethyl)phenyl)ethynyl)phenethyl)-5-hydroxypyrimidin-4(3H)-one]: the MIC is > 32 µg/mL in the assay with S. aureus (setting [2]), < 1 µg/mL with K. pneumoniae (setting [2]) and < 1 µg/mL with E. coli (setting [2]).
Take `O=c1[nH]cnc(CCc2ccc(C#Cc3ccc(CN4CCOCC4)c(F)c3)cc2)c1O` [Compound 186, 6-(4-((3-fluoro-4-(morpholinomethyl)phenyl)ethynyl)phenethyl)-5-hydroxypyrimidin-4(3H)-one]: the MIC in the assay on S. aureus (setting [2]) was > 32 µg/mL; with K. pneumoniae (setting [2]), < 1 µg/mL; in the assay on E. coli (setting [2]), < 1 µg/mL.
For `O=c1[nH]cnc(CCc2ccc(C#Cc3ccc(CN4CC(O)C4)cc3)c(F)c2)c1O` [Compound 187, 6-(3-fluoro-4-((4-((3-hydroxyazetidin-1-yl)methyl)phenyl)ethynyl)phenethyl)-5-hydroxypyrimidin-4(3H)-one], in assay [1], the activity at 4 µg/mL lay within 50 to 80%. Also, the activity at 8 µg/mL in assay [1] lay in the range of 50 to 80%. The activity at 16 µg/mL in assay [1] was 20 to 50%. Besides, the minimum inhibitory concentration (MIC) in the assay on S. aureus (setting [2]) was > 32 µg/mL; in the assay on K. pneumoniae (setting [2]), < 1 µg/mL; in the assay with E. coli (setting [2]) it was < 1 µg/mL.
As to `N#CC1CN(Cc2ccc(C#Cc3ccc(CCc4nc[nH]c(=O)c4O)cc3F)cc2)C1` [Compound 188, 1-(4-((2-fluoro-4-(2-(5-hydroxy-6-oxo-1,6-dihydropyrimidin-4-yl)ethyl)phenyl)ethynyl)benzyl)azetidine-3-carbonitrile], the MIC in the assay on S. aureus (setting [2]) is > 32 µg/mL; in the assay with K. pneumoniae (setting [2]), 1 to 8 µg/mL (≈ 2.33 to 18.7 µM); in the assay on E. coli (setting [2]) it was < 1 µg/mL.
Regarding `O=c1[nH]cnc(CCc2ccc(C#Cc3ccc(CNC4CCOC4)cc3)cc2)c1O` (stereo not shown) [Compound 241, 5-hydroxy-6-(4-((4-(((tetrahydrofuran-3-yl)amino)methyl)phenyl)ethynyl)phenethyl)pyrimidin-4(3H)-one], the MIC in the assay with S. aureus (setting [2]) is > 32 µg/mL; in the assay on K. pneumoniae (setting [2]) it was < 1 µg/mL; in the assay with E. coli (setting [2]), < 1 µg/mL.
With `COCCNCc1ccc(C#Cc2ccc(CCc3nc[nH]c(=O)c3O)cc2)cc1` [Compound 245, 5-hydroxy-6-(4-((4-(((2-methoxyethyl)amino)methyl)phenyl)ethynyl)phenethyl)pyrimidin-4(3H)-one], the MIC was > 32 µg/mL with S. aureus (setting [2]), 1 to 8 µg/mL (≈ 2.48 to 19.8 µM) in the assay with K. pneumoniae (setting [2]) and < 1 µg/mL in the assay on E. coli (setting [2]).
